For test [1], the target named is T1, Recombinant STAT3 protein (STAT3(G127-I722)) (Homo sapiens, UniProt P40763).
T1 construct: Recombinant STAT3 protein (STAT3(G127-I722))
Put plainly: STAT3 Fluorescence Polarization (FP) Assay. It counts as binding. The settings on record: STAT3(G127-I722) 25 nM, probe 5-FAM-GpYLPQTV-NH2 2 nM, 45-minute incubation. Summed up:
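Fluorescence polarization after a 45-min room-temperature incubation measured compound displacement of a 2 nM fluorescein-labelled phosphotyrosine peptide (5-FAM-GpYLPQTV-NH2) from 25 nM recombinant STAT3(G127-I722). Buffer was 10 mM HEPES pH 7.4 with 1% DMSO final. IC50s were fitted by nonlinear regression of mP against log concentration.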
Background: In fluorescence polarisation assays a small probe gives low polarisation when free and higher when bound to something large.

In test [2] the target is T2, Recombinant STAT6 protein (STAT6(W123-T658)) (Homo sapiens, UniProt P42226).
T2 construct: Recombinant STAT6 protein (STAT6(W123-T658))
T2 sequence (P42226 123-658): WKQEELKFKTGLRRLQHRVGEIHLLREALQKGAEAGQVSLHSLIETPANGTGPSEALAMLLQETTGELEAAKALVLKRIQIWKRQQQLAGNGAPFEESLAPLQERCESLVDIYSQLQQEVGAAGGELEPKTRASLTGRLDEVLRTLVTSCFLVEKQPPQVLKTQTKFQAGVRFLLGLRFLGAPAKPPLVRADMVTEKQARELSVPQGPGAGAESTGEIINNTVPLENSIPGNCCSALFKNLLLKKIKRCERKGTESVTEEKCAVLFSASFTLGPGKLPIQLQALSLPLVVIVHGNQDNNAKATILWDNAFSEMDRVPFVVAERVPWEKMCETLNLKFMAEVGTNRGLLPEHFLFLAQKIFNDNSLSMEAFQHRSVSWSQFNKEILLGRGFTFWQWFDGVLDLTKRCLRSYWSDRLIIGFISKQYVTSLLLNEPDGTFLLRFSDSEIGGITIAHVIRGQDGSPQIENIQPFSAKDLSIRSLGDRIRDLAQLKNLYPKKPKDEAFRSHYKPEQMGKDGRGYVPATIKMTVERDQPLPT
Nature of the test: STAT6 Fluorescence Polarization (FP) Assay. The following applies: STAT6(W123-T658) 250 nM, probe 5-FAM-ApYKPFQDLI-NH2 2 nM, 45-minute incubation. It counts as binding. The gist of the method:
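Displacement of a fluorescent phosphotyrosine peptide (5-FAM-ApYKPFQDLI-NH2, 2 nM) from STAT6(W123-T658) (250 nM), 1% DMSO, pH 7.4 HEPES buffer. After 45 min at room temperature, polarization (mP) was plotted versus log compound concentration and fitted by nonlinear regression to give IC50.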

SMILES strings stand for the structures.

T1 sequence (P40763 127-722): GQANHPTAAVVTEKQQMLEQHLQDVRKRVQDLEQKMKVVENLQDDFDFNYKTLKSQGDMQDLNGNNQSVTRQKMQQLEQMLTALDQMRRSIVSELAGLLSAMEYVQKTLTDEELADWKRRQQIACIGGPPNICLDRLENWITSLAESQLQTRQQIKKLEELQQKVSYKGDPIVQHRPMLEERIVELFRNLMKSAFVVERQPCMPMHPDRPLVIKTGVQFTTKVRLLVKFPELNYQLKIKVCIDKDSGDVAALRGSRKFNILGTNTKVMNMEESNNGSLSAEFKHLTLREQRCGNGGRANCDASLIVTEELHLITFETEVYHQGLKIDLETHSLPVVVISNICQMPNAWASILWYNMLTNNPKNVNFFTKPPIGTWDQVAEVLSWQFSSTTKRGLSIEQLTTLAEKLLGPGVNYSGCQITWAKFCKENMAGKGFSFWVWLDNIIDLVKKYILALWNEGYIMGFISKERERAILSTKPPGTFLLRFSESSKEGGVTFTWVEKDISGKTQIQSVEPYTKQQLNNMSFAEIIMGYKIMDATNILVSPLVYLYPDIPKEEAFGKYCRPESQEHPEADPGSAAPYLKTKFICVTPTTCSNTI

`CC(=O)N1CC[C@H]2CC[C@@H](C(=O)N3CC[C@H](Cc4cccnc4)C3)N2C(=O)[C@@H](NC(=O)c2cc3cc(C(F)(F)P(=O)(O)O)ccc3s2)C1` (single isomer, unassigned) [Compound 65, ((2-(((5S,8S,10aR)-3-acetyl-6-oxo-8-((S)-3-(pyridin-3-ylmethyl)pyrrolidine-1-carbonyl)decahydropyrrolo[1,2-a][1,5]diazocin-5-yl)carbamoyl)benzo[b]thiophen-5-yl)difluoromethyl)phosphonic acid or ((2-(((5S,8S,10aR)-3-acetyl-6-oxo-8-((R)-3-(pyridin-3-ylmethyl)pyrrolidine-1-carbonyl)decahydropyrrolo[1,2-a][1,5]diazocin-5-yl)carbamoyl)benzo[b]thiophen-5-yl)difluoromethyl)phosphonic acid]: the half-maximal inhibitory concentration (IC50) in test [1] fell in the range of 1 to 10 µM; in test [2] it was 0.3 to 3 µM.

On to `N#C[C@H]1CN(C(=O)[C@@H]2CC[C@@H]3CN(C(c4ccccc4)c4ccccc4)CC[C@H](NC(=O)c4ccc5ccc(C(F)(F)P(=O)(O)O)cc5c4)C(=O)N32)C[C@@H]1c1ccccc1` (relative stereo) [Compound 209, ((7-(((5S,8S,10aR)-2-benzhydryl-8-((rel-trans)-3-cyano-4-phenylpyrrolidine-1-carbonyl)-6-oxodecahydropyrrolo[1,2-a][1,4]diazocin-5-yl)carbamoyl)naphthalen-2-yl)difluoromethyl)phosphonic acid], for which the IC50 lay within 1 to 10 µM in test [1] and 0.3 to 3 µM in test [2].

Take `COc1ccc(N(C)C(=O)[C@@H]2CC[C@@H]3CCN(C(C)=O)C[C@H](NC(=O)c4cc5cc(C(F)(F)P(=O)(O)O)ccc5[nH]4)C(=O)N32)cc1` [Compound 166, ((2-(((5S,8S,10aR)-3-acetyl-8-((4-methoxyphenyl)(methyl)carbamoyl)-6-oxodecahydropyrrolo[1,2-a][1,5]diazocin-5-yl)carbamoyl)-1H-indol-5-yl)difluoromethyl)phosphonic acid]: the 50% inhibitory concentration (IC50) is 1 to 10 µM in test [1] and 0.3 to 3 µM in test [2].

On to `Cc1ccc2onc(C(=O)N3CC[C@H]4CC[C@@H](C(=O)N5CCOC[C@H]5c5ccccc5)N4C(=O)[C@@H](NC(=O)c4ccc5ccc(C(F)P(=O)(O)O)cc5c4)C3)c2c1` (stereo partly drawn) [Compound 371, (fluoro(7-(((5S,8S,10aR)-3-(5-methylbenzo[d]isoxazole-3-carbonyl)-6-oxo-8-((R)-3-phenylmorpholine-4-carbonyl)decahydro-pyrrolo[1,2-a][1,5]diazocin-5-yl)carbamoyl)naphthalen-2-yl)methyl)phosphonic acid], for which the IC50 in test [1] was more than 10 µM; in test [2], not above 0.3 µM.

On to `CC(=O)N1CC(N(C)C(=O)[C@@H]2CC[C@@H]3CCN(C(C)=O)C[C@H](NC(=O)c4cc5cc(C(F)(F)P(=O)(O)O)ccc5s4)C(=O)N32)C1` [Compound 171, ((2-(((5S,8S,10aR)-3-acetyl-8-((1-acetylazetidin-3-yl)(methyl)carbamoyl)-6-oxodecahydropyrrolo[1,2-a][1,5]diazocin-5-yl)carbamoyl)benzo[b]thiophen-5-yl)difluoromethyl)phosphonic acid], for which the 50% inhibitory concentration (IC50) lay within 1 to 10 µM in test [1] and 0.3 to 3 µM in test [2].

`CC(=O)N1CC[C@H]2CC[C@@H](C(=O)Nc3ccc(-c4ccccc4)cc3CC(N)=O)N2C(=O)[C@@H](NC(=O)c2cc3cc(C(F)(F)P(=O)(O)O)ccc3s2)C1` [Compound 177, ((2-(((5S,8S,10aR)-3-acetyl-8-((3-(2-amino-2-oxoethyl)-[1,1′-biphenyl]-4-yl)carbamoyl)-6-oxodecahydropyrrolo[1,2-a][1,5]diazocin-5-yl)carbamoyl)benzo[b]thiophen-5-yl)difluoromethyl)phosphonic acid]: the IC50 in test [1] is not above 0.1 µM; in test [2] it was 0.3 to 3 µM.

For `CC(=O)N1CCC(NC(=O)c2ccc3ccc(C(F)(F)P(=O)(O)O)cc3c2)C(=O)N2C(CCC2C(=O)N2CC(C#N)C(c3ccccc3)C2)C1` (mixture of isomers) [Compound 4, ((7-(((5S,8S,10aR)-2-acetyl-8-((rel-trans)-3-cyano-4-phenylpyrrolidine-1-carbonyl)-6-oxodecahydropyrrolo[1,2-a][1,4]diazocin-5-yl)carbamoyl)naphthalen-2-yl)difluoromethyl)phosphonic Acid], the IC50 in test [1] is 1 to 10 µM; in test [2] it was not above 0.3 µM.

In the case of `CC(=O)N1CC[C@H]2CC[C@@H](C(=O)N3CC(C#N)(c4ccccn4)C3)N2C(=O)[C@@H](NC(=O)c2cc3cc(C(F)(F)P(=O)(O)O)ccc3s2)C1` [Compound 88, ((2-(((5S,8S,10aR)-3-acetyl-8-(3-cyano-3-(pyridin-2-yl)azetidine-1-carbonyl)-6-oxodecahydropyrrolo[1,2-a][1,5]diazocin-5-yl)carbamoyl)benzo[b]thiophen-5-yl)difluoromethyl)phosphonic acid], the IC50 in test [1] is not above 0.1 µM; in test [2] it was 0.3 to 3 µM.

Take `C[C@@H](Cc1ccccc1)C(=O)N1CC[C@H]2CC[C@@H](C(=O)N3CCCC3)N2C(=O)[C@@H](NC(=O)c2cc3cc(C(F)(F)P(=O)(O)O)ccc3s2)C1` [Compound 258, (difluoro(2-(((5S,8S,10aR)-3-((S)-2-methyl-3-phenylpropanoyl)-6-oxo-8-(pyrrolidine-1-carbonyl)decahydropyrrolo[1,2-a][1,5]diazocin-5-yl)carbamoyl)benzo[b]thiophen-5-yl)methyl)phosphonic acid]: the IC50 in test [1] fell in the range of 1 to 10 µM; in test [2] it was 0.3 to 3 µM.

Turning to `COc1cccc([C@@H]2CN(C(=O)[C@@H]3CC[C@@H]4CCN(C(C)=O)C[C@H](NC(=O)c5cc6cc(C(F)(F)P(=O)(O)O)ccc6s5)C(=O)N43)C[C@H]2C#N)c1` (relative stereo) [Compound 149, ((2-(((5S,8S,10aR)-3-acetyl-8-((rel-trans)-3-cyano-4-(3-methoxyphenyl)pyrrolidine-1-carbonyl)-6-oxodecahydropyrrolo[1,2-a][1,5]diazocin-5-yl)carbamoyl)benzo[b]thiophen-5-yl)difluoromethyl)phosphonic acid], the IC50 in test [1] was 1 to 10 µM; in test [2] it was not above 0.3 µM.

On to `CC(=O)N1CC[C@H]2CC[C@@H](C(=O)N3CC[C@@H](C(=O)N4CCCCC4)C3)N2C(=O)[C@@H](NC(=O)c2cc3cc(C(F)(F)P(=O)(O)O)ccc3s2)C1` [Compound 194, ((2-(((5S,8S,10aR)-3-acetyl-6-oxo-8-((R)-3-(piperidine-1-carbonyl)pyrrolidine-1-carbonyl)decahydropyrrolo[1,2-a][1,5]diazocin-5-yl)carbamoyl)benzo[b]thiophen-5-yl)difluoromethyl)phosphonic acid], for which the values for the IC50 in test [1] and in test [2] were 1 to 10 µM and 0.3 to 3 µM, respectively.

Consider `CCC(=O)NCCCN(C)C(=O)[C@@H]1CC[C@@H]2CCN(C(C)=O)C[C@H](NC(=O)/C=C/c3ccc(C(F)(F)P(=O)(O)O)cc3)C(=O)N21` [Compound 26, ((4-((E)-3-(((5S,8S,10aR)-3-acetyl-8-(methyl(3-propionamidopropyl)carbamoyl)-6-oxodecahydropyrrolo[1,2-a][1,5]diazocin-5-yl)amino)-3-oxoprop-1-en-1-yl)phenyl)difluoromethyl)phosphonic acid], for which the IC50 in test [1] was more than 10 µM; in test [2] it was more than 30 µM.

Turning to `Cc1ccc2onc(C(=O)N3CC[C@H]4CC[C@@H](C(=O)N5CCOCC5)N4C(=O)[C@@H](NC(=O)c4ccc5ccc(CP(=O)(O)O)nc5c4)C3)c2c1` [Compound 396, ((7-(((5S,8S,10aR)-3-(5-methylbenzo[d]isoxazole-3-carbonyl)-8-(morpholine-4-carbonyl)-6-oxodecahydropyrrolo [1,2-a][1,5]diazocin-5-yl)carbamoyl)quinolin-2-yl)methyl)phosphonic acid], the IC50 in test [1] was more than 10 µM; in test [2] it was 3 to 30 µM.

As to `O=C(N[C@H]1CN(C(=O)c2noc3c2COCC3)CC[C@H]2CC[C@@H](C(=O)N3CCOCC3)N2C1=O)c1ccc2ccc(C(F)P(=O)(O)O)cc2c1` (stereo partly drawn) [Compound 360, ((7-(((5S,8S,10aR)-3-(6,7-dihydro-4H-pyrano[3,4-d]isoxazole-3-carbonyl)-8-(morpholine-4-carbonyl)-6-oxodecahydropyrrolo [1,2-a][1,5]diazocin-5-yl)carbamoyl)naphthalen-2-yl)fluoromethyl) phosphonic acid], the IC50 is more than 10 µM in test [1] and 0.3 to 3 µM in test [2].

What is called IC50 is the point on the concentration scale where inhibition reaches its midpoint.

For the origin of these results see patent US20250179103A1, “6-OXODECAHYDROPYRROLO[1,2-A][1,5]DIAZOCINE AND 6-OXODECAHYDRO-4H-PYRROLO[2,1-D][1,5]THIAZOCINE DERIVATIVES AS STAT3 AND STAT6 MODULATORS FOR THE TREATMENT OF CANCER AND INFLAMMATORY CONDITIONS” (Recludix Pharma, Inc., priority 2022, published 2025).
